This passage reports Ki, IC50 and inhibition in vivo results from patent US10131679B2, “Substituted dihydropyrrolopyrazole compound” (UBE INDUSTRIES, LTD., priority 2014, dated 2018).

The target of one experiment is T1, PAK4 (Homo sapiens, UniProt O96013).
T1 construct: purchased Invitrogen Corp. PV4212
Nature of the experiment: PAK4 enzyme inhibition test. The conditions noted are these: Ki=IC50/(1+S/Km); 33P bound to MBP, [γ-33P]ATP, 30° C. for 20 minutes; read-out: Ki value of PAK4 inhibitory activity. In kind it is biochemical. The procedure, abridged:
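Radiometric assay: PAK4 with MBP substrate and 40 μM [γ-^33P]ATP solution in Tris pH 7.5 buffer with MgCl2, DTT, EGTA, reacted 20 min at 30 °C. TCA-precipitated, washed ^33P-MBP counted by scintillation. IC50 from inhibition of ^33P incorporation; Ki = IC50/(1+S/Km).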

In experiment [1] the test system is human large intestine cancer cell line (HCT-116). Nature of the experiment: Human large intestine cancer (HCT-116) cell growth inhibition test. The settings on record: 72 h, HCT-116, culture for 3 days, sulforhodamine B absorbance. The experiment is classed as cell-based. An outline of the steps:
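HCT-116 cells seeded at 1.0×10^3 cells/well in McCoy's 5a with 10% FBS, then exposed to compound (0.1% DMSO final) for 3 days. Growth measured by sulforhodamine B absorbance; IC50 derived from concentration-inhibition data.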

The subject of experiment [2] is mouse imiquimod-induced psoriasis model. Nature of the experiment: Ear thickening suppression test using mouse imiquimod-induced psoriasis model. The experiment is classed as in vivo. The conditions noted are these: topical, 120 h, application of a 0.01% methanol solution for 4 days, thickness measured on day 5, BALB/c mice, read-out: rate of inhibition of increase in right auricle thickness. An outline of the steps:
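Female BALB/c mice received test compound topically or orally, then 5 mg imiquimod cream (5%) on the right auricle 60 minutes later, daily for 4 days. Ear thickness was measured on day 5. Inhibition (%) of thickening was calculated relative to the solvent group, taken as 100%.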

Structures are written as SMILES.

T1 sequence (O96013 whole entry): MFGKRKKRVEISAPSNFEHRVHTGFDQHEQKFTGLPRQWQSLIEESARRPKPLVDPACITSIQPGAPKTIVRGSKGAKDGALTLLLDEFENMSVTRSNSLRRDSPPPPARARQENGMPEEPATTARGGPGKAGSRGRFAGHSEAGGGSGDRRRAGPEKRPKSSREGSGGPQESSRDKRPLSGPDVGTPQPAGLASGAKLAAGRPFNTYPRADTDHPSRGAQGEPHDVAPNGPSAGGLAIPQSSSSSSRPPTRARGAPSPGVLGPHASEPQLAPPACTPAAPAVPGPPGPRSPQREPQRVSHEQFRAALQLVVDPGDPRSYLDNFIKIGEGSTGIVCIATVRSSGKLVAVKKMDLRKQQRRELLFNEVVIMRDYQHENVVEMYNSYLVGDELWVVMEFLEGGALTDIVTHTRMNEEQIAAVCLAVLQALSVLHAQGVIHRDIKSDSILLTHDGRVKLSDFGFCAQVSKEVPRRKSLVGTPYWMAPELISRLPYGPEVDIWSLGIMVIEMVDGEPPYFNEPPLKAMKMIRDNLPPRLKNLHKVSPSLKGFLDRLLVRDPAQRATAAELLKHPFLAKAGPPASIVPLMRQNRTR

Broadly, the Ki is a dissociation constant, usually derived from enzyme kinetics or from competition with a known ligand. One may read the IC50 as the midpoint of a concentration-inhibition curve. Low values mean higher potency, high ones lower potency. For the compound `CC1(C)c2[nH]nc(NC(=O)C3([Si](C)(C)C)CCC3)c2CN1C(=O)NC(c1ccccc1)C1(CO)CCC1` (stereo not drawn) [IV-718, N-{[1-(Hydroxymethyl)cyclobutyl](phenyl)methyl}-6,6-dimethyl-3-[1-(trimethylsilyl)cyclobutanecarboxamido]-4,6-dihydropyrrolo[3,4-c]pyrazole-5(1H)-carboxamide], the Ki at PAK4 was ≥ 500 nM. Also, the IC50 in experiment [1] was ≤ 500 nM. Further, the inhibition in vivo at 0.01 % in experiment [2] is ≥ 50%.
For `CC1(C)c2[nH]nc(NC(=O)C3([Si](C)(C)C)CCC3)c2CN1C(=O)N[C@H](CC1(O)CC1)c1ccccc1` [IV-743, (R)—N-[2-(1-Hydroxycyclopropyl)-1-phenylethyl]-6,6-dimethyl-3-[1-(trimethylsilyl)cyclobutanecarboxamido]-4,6-dihydropyrrolo[3,4-c]pyrazole-5(1H)-carboxamide], in that order: ≥ 500 nM, ≤ 500 nM and ≥ 50%.
Turning to `CC(C)(O)C[C@@H](NC(=O)N1Cc2c(NC(=O)C3([Si](C)(C)C)CCC3)n[nH]c2C1(C)C)c1cccc(F)c1` [IV-911, (R)—N-[1-(3-Fluorophenyl)-3-hydroxy-3-methylbutyl]-6,6-dimethyl-3-[1-(trimethylsilyl)cyclobutanecarboxamido]-4,6-dihydropyrrolo[3,4-c]pyrazole-5(1H)-carboxamide], the inhibitory constant (Ki) at PAK4 was ≥ 500 nM. For the same compound, in experiment [1], the IC50 is ≤ 500 nM. Also, the inhibition in vivo at 0.01 % in experiment [2] is ≥ 50%.
In the case of `CC(C)(CO)C(NC(=O)N1Cc2c(NC(=O)C3([Si](C)(C)C)CCC3)n[nH]c2C1(C)C)c1cccc(F)c1` (stereo not drawn) [IV-918, N-[1-(3-Fluorophenyl)-3-hydroxy-2,2-dimethylpropyl]-6,6-dimethyl-3-[1-(trimethylsilyl)cyclobutanecarboxamido]-4,6-dihydropyrrolo[3,4-c]pyrazole-5(1H)-carboxamide], the Ki at PAK4 was ≥ 500 nM. In addition, the half-maximal inhibitory concentration (IC50) in experiment [1] was ≤ 500 nM. Further, the inhibition in vivo at 0.01 % in experiment [2] was ≥ 50%.
The corresponding values for `CC(C)(CO)C(NC(=O)N1Cc2c(NC(=O)C3([Si](C)(C)C)CCC3)n[nH]c2C1(C)C)c1ccc(F)cc1` (stereo not drawn) [IV-946, N-[1-(4-Fluorophenyl)-3-hydroxy-2,2-dimethylpropyl]-6,6-dimethyl-3-[1-(trimethylsilyl)cyclobutanecarboxamido]-4,6-dihydropyrrolo[3,4-c]pyrazole-5(1H)-carboxamide] are ≥ 500 nM, ≤ 500 nM and ≥ 50%.
The corresponding values for `CC1(C)c2[nH]nc(NC(=O)C3([Si](C)(C)C)CCC3)c2CN1C(=O)[C@H](OC(F)(F)F)c1ccccc1` [IV-1184, (R)—N-{6,6-Dimethyl-5-[2-phenyl-2-(trifluoromethoxy)acetyl]-1,4,5,6-tetrahydropyrrolo[3,4-c]pyrazol-3-yl}-1-(trimethylsilyl)cyclobutanecarboxamide] are ≥ 500 nM, ≤ 500 nM and ≥ 50%.
Consider `CC(C)O[C@@H](C(=O)N1Cc2c(NC(=O)C3([Si](C)(C)C)CCC3)n[nH]c2C1(C)C)c1ccccc1` [IV-1204, (R)—N-[5-(2-Isopropoxy-2-phenylacetyl)-6,6-dimethyl-1,4,5,6-tetrahydropyrrolo[3,4-c]pyrazol-3-yl]-1-(trimethylsilyl)cyclobutanecarboxamide], for which, at PAK4, the inhibition constant (Ki) is ≥ 500 nM. For the same compound, in experiment [1], the IC50 is ≤ 500 nM. Further, in experiment [2], the inhibition in vivo at 0.01 % was ≥ 50%.
Turning to `CC1(C)c2[nH]nc(NC(=O)C3([Si](C)(C)C)CCC3)c2CN1C(=O)[C@H](OC1CC1)c1ccccc1` [IV-1208, (R)—N-[5-(2-Cyclopropoxy-2-phenylacetyl)-6,6-dimethyl-1,4,5,6-tetrahydropyrrolo[3,4-c]pyrazol-3-yl]-1-(trimethylsilyl)cyclobutanecarboxamide], the Ki on PAK4 was ≥ 500 nM. For the same compound, in experiment [1], the half-maximal inhibitory concentration (IC50) was ≤ 500 nM. The inhibition in vivo at 0.01 % in experiment [2] is ≥ 50%.
In the case of `CO[C@@H](C(=O)N1Cc2c(NC(=O)C3([Si](C)(C)C)CCC3)n[nH]c2C1(C)C)c1ccccc1F` [IV-1383, (R)—N-{5-[2-(2-Fluorophenyl)-2-methoxyacetyl]-6,6-dimethyl-1,4,5,6-tetrahydropyrrolo[3,4-c]pyrazol-3-yl}-1-(trimethylsilyl)cyclobutanecarboxamide], the Ki at PAK4 is ≥ 500 nM. Besides, in experiment [1], the IC50 was ≤ 500 nM. The inhibition in vivo at 0.01 % in experiment [2] is ≥ 50%.
With `COC(C(=O)N1Cc2c(NC(=O)C3([Si](C)(C)C)CCC3)n[nH]c2C1(C)C)c1cccc(F)c1` (stereo not drawn) [IV-1404, N-{5-[2-(3-Fluorophenyl)-2-methoxyacetyl]-6,6-dimethyl-1,4,5,6-tetrahydropyrrolo[3,4-c]pyrazol-3-yl}-1-(trimethylsilyl)cyclobutanecarboxamide], the Ki at PAK4 is ≥ 500 nM. The 50% inhibitory concentration (IC50) in experiment [1] is ≤ 500 nM. In experiment [2], the inhibition in vivo at 0.01 % is ≥ 50%.
On to `COC(C(=O)N1Cc2c(NC(=O)C3([Si](C)(C)C)CCC3)n[nH]c2C1(C)C)c1cccs1` (stereo not drawn) [IV-1546, N-{5-[2-Methoxy-2-(thiophen-2-yl)acetyl]-6,6-dimethyl-1,4,5,6-tetrahydropyrrolo[3,4-c]pyrazol-3-yl}-1-(trimethylsilyl)cyclobutanecarboxamide], for which the Ki at PAK4 is ≥ 500 nM. In addition, the concentration for half-maximal inhibition (IC50) in experiment [1] was ≤ 500 nM. The inhibition in vivo at 0.01 % in experiment [2] is ≥ 50%.
